We go through two molecules from patent US11767286B2, “Phenylpropionate compound, preparation method for same, and applications thereof” (SUZHOU PHARMAVAN CO., LTD, priority 2017, dated 2023).

Series [1] has as its system platelet aggregation induced with ADP. The series can be described thus: Maximum platelet aggregation rate of rabbits, induced with ADP. In kind it is cell-based. The conditions noted are these: rabbit plasma, 4 mg/kg as printed, n=3; for inhibition at 4 mg/kg: Oryctolagus cuniculus, Platelet. The method, then:
(§1) Effects on maximum platelet aggregation rate of rabbits: 3 Rabbits were anesthetized, and blood was collected from the heart to obtain 14 parts of plasma for each rabbit (1 ml per part of plasma). 7 Parts were induced with ADP to allow platelet aggregation, and 7 parts were induced with a platelet activating factor. After the induction, a solvent, positive control drug aspirin, and 5 samples to be trialed were separately added to the plasma, and maximum platelet aggregation rate was detected with a platelet aggregation meter. The trials were repeated 3 times, and an average was taken. Detected indicator: maximum platelet aggregation rate.
(§2) Table 4 lists results of effects of phenylpropionate compounds (4 mg/kg) on platelet aggregation rate of rabbits (n=3).

A short description of series [2]: Distribution in brain: plasma and intracerebral concentrations after intravenous injection. In kind it is in vivo. Particulars: both sexes, rat, rats, 4 mg/kg iv; for Kp at 10 min / Kp at 60 min / Kp at 180 min: brain/plasma, read-out: Brain/Blood Concentration Ratio. As for the experimental part: In this example, Compounds A to E, D-bornyl ferulate, and D-tanshinol borneol ester were measured for distribution in brain. Structures of D-bornyl ferulate (Patent Application No.: 201510243181.5) and D-tanshinol borneol ester compounds are as follows:
Method for testing distribution in brain: 42 rats with a weight range of 200±20 g were taken. The rats were randomly divided into 7 groups, with 6 rats per group, half male and half female. Rats were fasted with free access to water for 12 h and then intravenously injected with 4 mg/kg of a compound. Rats in the 3 groups were sacrificed through femoral artery bleeding and collected for blood 10 min, 60 min, 180 min after administration, respectively. Brains were taken out, 0.2 g was weighted, and 1 mL of pure water was added for homogenizing. The blood samples and brain homogenate samples were stored at −20° C.
Distribution of Compounds A to E, and D-bornyl ferulate and D-tanshinol borneol ester compounds in brain: Data on concentrations of Compounds A to E, D-bornyl ferulate, and D-tanshinol borneol ester in plasma and intracerebral in rats intravenously injected with 4 mg/kg of Compounds A to E, D-bornyl ferulate, and D-tanshinol borneol ester are listed in Table 9.

The test system of series [3] is rats with acute cerebral ischemia-reperfusion. The series can be described thus: Cerebral infarction area of rats with acute cerebral ischemia-reperfusion (MCAO, suture method). The format is in vivo, SD rats. Also on record: Cerebral Infarction Area: unit not given here. The conditions noted are these: n=5; for Cerebral Infarction Area: 4 mg/kg iv 2 h after reperfusion (2 h MCAO), sampled 4 h after administration; for inhibition in vivo at 4 mg/kg: Rattus norvegicus, 4 h, 4 mg/kg iv 2 h after reperfusion, vs solvent control, read-out: Percentage of Cerebral Infarction Area Reduction. The method, then:
(§3) Trial method: Effects on inflammatory factors and blood viscosity of rats with acute cerebral ischemia-reperfusion: 70 Male SD rats underwent an MACO surgery by a suture method, and after the surgery, alive rats were randomly grouped (into 7 groups, the number of successful animals in each group was guaranteed to be 6 to 8). Blood perfusion was recovered 2 h after MCAO, and corresponding trial medicaments were intravenously injected 2 h after blood reperfusion. 4 hours after the administration, blood was collected and the rats were sacrificed to take out brain tissues. The brain tissues and part of the blood were centrifuged to collect serum which was detected for inflammatory factors, and part of the blood was detected for blood viscosity by using a blood viscometer. Detected indicators: cerebral infarction area; inflammatory factors IL-1β and TNF-α; and blood viscosity.
Table 1 lists results of effects of phenylpropionate compounds (4 mg/kg) on cerebral infarction area of rats with acute cerebral ischemia (n=5).

Series [4] shares this test system. The series can be described thus: Blood viscosity of rats with acute cerebral ischemia-reperfusion (blood viscometer). The format is in vivo, SD rats. On the set-up: unit not given here. Particulars: 4 mg/kg iv 2 h after reperfusion; blood 4 h after administration; n=5. The method, then: as §3
Table 2 lists results of effects of phenylpropionate compounds (4 mg/kg) on blood viscosity of rats (n=5).

Series [5] deals with platelet aggregation induced with a platelet activating factor. The series is described as follows: Maximum platelet aggregation rate of rabbits, induced with PAF. The format is cell-based. The conditions noted are these: rabbit plasma, 4 mg/kg as printed; for inhibition at 4 mg/kg: Oryctolagus cuniculus, Platelet, n=3, read-out: Inhibiton rate on Aggregation; for Maximum Aggregation Rate: n=3. As for the experimental part:
as §1, §2

For a further series, the system named is TNF-α. The series is described as follows: Inflammatory factor TNF-α in blood and brain tissues of rats with acute cerebral ischemia-reperfusion. The format is in vivo, SD rats. The conditions noted are these: 4 mg/kg iv 2 h after reperfusion; 4 h after administration; n=5. The method, then:
as §3
Table 3 lists results of effects of phenylpropionate compounds (4 mg/kg) on inflammatory factors in blood and brain tissues of rats (n=5).

[6] abbreviates: brain, read-out: Mean Intracerebral Concentration.
Where [7] appears, read: plasma, read-out: Mean Plasma Concentration.

Like-named read-outs stand apart in the source and are kept apart here.

With `COc1cc(CCC(=O)O[C@H]2C[C@H]3CC[C@]2(C)C3(C)C)cc(OC)c1O` [Compound C], in series [1], the inhibition at 4 mg/kg was 56.5% and the “Maximum Aggregation Rate” value is reported as 14.3 ± 5.64 %. In series [2], the Kp at 10 min came to 2.9, the Kp at 60 min was determined as 11 and the Kp at 180 min came out at 2. Also, in series [2] (setting [6]), the concentration at 10 min was 2630 ± 167 ng/g, the concentration at 60 min came to 1870 ± 406 ng/g and the concentration at 180 min worked out at 188 ± 51.9 ng/g. In addition, in series [2] (setting [7]), the concentration at 10 min amounted to 906 ± 145 ng/mL, the concentration at 60 min worked out at 160 ± 49.1 ng/mL and the concentration at 180 min came to 92.2 ± 35.5 ng/mL. In series [3], the “Cerebral Infarction Area” value stood at 19.6 ± 5.38 and the inhibition in vivo at 4 mg/kg was 46.6%. In addition, in series [4], the “Blood viscosity, High Shear” value amounted to 2.70 ± 0.982 and the “Blood viscosity, Low Shear” value stood at 13.9 ± 1.014. In addition, in series [5], the inhibition at 4 mg/kg is 52.9% and the “Maximum Aggregation Rate” value amounted to 33.6 ± 7.9 %. This molecule also returned a TNF-α in the series on TNF-α of 634 ± 25.1 ng/L.
For the molecule `COc1cc(CCC(=O)O[C@H]2C[C@H]3CC[C@]2(C)C3(C)C)cc(F)c1O` [Compound A], in series [1], the inhibition at 4 mg/kg was determined as 52.3% and the “Maximum Aggregation Rate” value came out at 15.7 ± 6.31 %. In series [2], the Kp at 10 min came out at 2.6, the Kp at 60 min is 5.7 and the Kp at 180 min is 3.2. In series [2] (setting [6]), the concentration at 10 min was 2640 ± 517 ng/g, the concentration at 60 min came out at 1420 ± 309 ng/g and the concentration at 180 min is 311 ± 115 ng/g. Further, in series [2] (setting [7]), the concentration at 10 min worked out at 1020 ± 192 ng/mL, the concentration at 60 min turned out to be 252 ± 76.5 ng/mL and the concentration at 180 min amounted to 97.3 ± 22.7 ng/mL. Further, in series [3], the “Cerebral Infarction Area” value is given as 18.6 ± 2.65 and the inhibition in vivo at 4 mg/kg came to 49.3%. For the same molecule, in series [4], the “Blood viscosity, High Shear” value was found to be 2.56 ± 0.057 and the “Blood viscosity, Low Shear” value is recorded as 13.2 ± 0.535. In series [5], the inhibition at 4 mg/kg was 60.2% and the “Maximum Aggregation Rate” value is 28.4 ± 6.4 %. For the same molecule, the TNF-α in the series on TNF-α stood at 615 ± 42.9 ng/L.
